US20120029187A1, “HALOALKYLSULFONANILIDE DERIVATIVE” (Nissan Chemical Industries, Ltd., priority 2009, published 2012)

What was measured:
Assay type in all cases: in vivo
redroot pigweed [1] = test: Test Example 4: herbicidal effect in foliage treatment; conditions: dose 3.2 g/a, three weeks after application
Procedure, shortened: (§1)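 14-day greenhouse-grown plants (25–30° C) sprayed on foliage with diluted EC; dose as g/a; effect graded after 3 weeks.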

Italian ryegrass [2] = test: as above; conditions: dose 3.2 g/a, three weeks after application
Procedure, shortened: as §1

barnyardgrass [3] = test: as above; conditions: dose 3.2 g/a, three weeks after application
Procedure, shortened: as §1

large crabgrass [4] = test: as above; conditions: dose 3.2 g/a, three weeks after application
Procedure, shortened: as §1

common ragweed [5] = test: as above; conditions: dose 3.2 g/a, three weeks after application
Procedure, shortened: as §1

beadstraw = test: as above; conditions: dose 3.2 g/a, three weeks after application
Procedure, shortened: as §1

common chickweed [6] = test: as above; conditions: dose 3.2 g/a, three weeks after application
Procedure, shortened: as §1

giant foxtail [7] = test: as above; conditions: dose 3.2 g/a, three weeks after application
Procedure, shortened: as §1

water foxtail [8] = test: as above; conditions: dose 3.2 g/a, three weeks after application
Procedure, shortened: as §1

common lambsquater [9] = test: as above; conditions: dose 3.2 g/a, three weeks after application
Procedure, shortened: as §1

velvetleaf [10] = test: as above; conditions: dose 3.2 g/a, three weeks after application
Procedure, shortened: as §1

posumbu knotweed [11] = test: as above; conditions: dose 3.2 g/a, three weeks after application
Procedure, shortened: as §1

redroot pigweed [12] = test: Test Example 3: herbicidal effects in soil treatment; conditions: dose 3.2 g/a
Procedure, shortened: (§2)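 Seeds were sown in sterilized diluvial soil and covered with about 1.5 cm of soil. Compounds, formulated as emulsifiable concentrates and diluted with water, were sprayed evenly over the soil surface at set doses in g/a. Herbicidal effect was scored on a rating scale three weeks later.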

Italian ryegrass [13] = test: as above; conditions: dose 3.2 g/a
Procedure, shortened: as §2

barnyardgrass [14] = test: as above; conditions: dose 3.2 g/a
Procedure, shortened: as §2

large crabgrass [15] = test: as above; conditions: dose 3.2 g/a
Procedure, shortened: as §2

common ragweed [16] = test: as above; conditions: dose 3.2 g/a
Procedure, shortened: as §2

common chickweed [17] = test: as above; conditions: dose 3.2 g/a
Procedure, shortened: as §2

giant foxtail [18] = test: as above; conditions: dose 3.2 g/a
Procedure, shortened: as §2

water foxtail [19] = test: as above; conditions: dose 3.2 g/a
Procedure, shortened: as §2

common lambsquater [20] = test: as above; conditions: dose 3.2 g/a
Procedure, shortened: as §2

velvetleaf [21] = test: as above; conditions: dose 3.2 g/a
Procedure, shortened: as §2

posumbu knotweed [22] = test: as above; conditions: dose 3.2 g/a
Procedure, shortened: as §2

ducksalad [23] = test: Test Example 2: herbicidal effects during the vegetation period under submerged conditions; conditions: treatment during the vegetation period under submerged conditions; dose 2.52 g/a
Procedure, shortened: (§3)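 Barnyardgrass, bulrush and ducksalad were co-sown in alluvial soil flooded to 4 cm and grown in a greenhouse at 25 to 30° C. At the 1- or 2-leaf stage, water-diluted emulsifiable concentrates went onto the water surface at set doses (g/a). Herbicidal effect was scored three weeks later on a graded scale.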

barnyardgrass [24] = test: as above; conditions: treatment during the vegetation period under submerged conditions; dose 2.52 g/a
Procedure, shortened: as §3

bulrush [25] = test: as above; conditions: treatment during the vegetation period under submerged conditions; dose 2.52 g/a
Procedure, shortened: as §3

transplanted rice = test: Test Example 1: preemergence treatment under submerged conditions, effect on crop; conditions: dose 2.52 g/a
Procedure, shortened: (§4)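 Alluvial soil flooded to 4 cm depth; barnyardgrass, bulrush and ducksalad sown and 2.5-leaf rice seedlings transplanted. Same day, water-diluted emulsifiable concentrates applied to the water surface at set doses (g/a). Kept at 25–30 °C in greenhouse; effects scored 0–5 by mortality after three weeks.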

ducksalad [26] = test: Test Example 1: herbicidal effects in preemergence treatment under submerged conditions; conditions: dose 2.52 g/a
Procedure, shortened: as §4

barnyardgrass [27] = test: as above; conditions: dose 2.52 g/a
Procedure, shortened: as §4

bulrush [28] = test: as above; conditions: dose 2.52 g/a
Procedure, shortened: as §4

SMILES | K: redroot pigweed, herbicidal effect (redroot pigweed [1]) | H: Italian ryegrass, herbicidal effect (Italian ryegrass [2]) | A: barnyardgrass, herbicidal effect (barnyardgrass [3]) | D: large crabgrass, herbicidal effect (large crabgrass [4]) | J: common ragweed, herbicidal effect (common ragweed [5]) | O: beadstraw, herbicidal effect (beadstraw) | N: common chickweed, herbicidal effect (common chickweed [6]) | E: giant foxtail, herbicidal effect (giant foxtail [7]) | G: water foxtail, herbicidal effect (water foxtail [8]) | L: common lambsquater, herbicidal effect (common lambsquater [9]) | I: velvetleaf, herbicidal effect (velvetleaf [10]) | M: posumbu knotweed, herbicidal effect (posumbu knotweed [11]) | K: redroot pigweed, herbicidal effect (evaluation scale 0-5) (redroot pigweed [12]) | H: Italian ryegrass, herbicidal effect (evaluation scale 0-5) (Italian ryegrass [13]) | A: barnyardgrass, herbicidal effect (evaluation scale 0-5) (barnyardgrass [14]) | D: large crabgrass, herbicidal effect (evaluation scale 0-5) (large crabgrass [15]) | J: common ragweed, herbicidal effect (evaluation scale 0-5) (common ragweed [16]) | N: common chickweed, herbicidal effect (evaluation scale 0-5) (common chickweed [17]) | E: giant foxtail, herbicidal effect (evaluation scale 0-5) (giant foxtail [18]) | G: water foxtail, herbicidal effect (evaluation scale 0-5) (water foxtail [19]) | further results
CC1(CC(F)(F)F)CC(=O)N(Cc2ccccc2NS(=O)(=O)C(F)(F)F)CO1 (stereo not drawn) [II-51] | 0 (mortality of less than 5% (almost ineffective)) | 3 (mortality of at least 40% and less than 70%) | 5 (mortality of 90% or above (nearly complete death)) | 4 (mortality of at least 70% and less than 90%) | 3 (mortality of at least 40% and less than 70%) | 4 (mortality of at least 70% and less than 90%) | 5 (mortality of 90% or above (nearly complete death)) | 4 (mortality of at least 70% and less than 90%) | 5 (mortality of 90% or above (nearly complete death)) | 3 (mortality of at least 40% and less than 70%) | 4 (mortality of at least 70% and less than 90%) | 5 (mortality of 90% or above (nearly complete death)) | 0 (mortality of less than 5% (almost ineffective)) | 3 (mortality of at least 40% and less than 70%) | 5 (mortality of 90% or above (nearly complete death)) | 5 (mortality of 90% or above (nearly complete death)) | 4 (mortality of at least 70% and less than 90%) | 5 (mortality of 90% or above (nearly complete death)) | 4 (mortality of at least 70% and less than 90%) | 5 (mortality of 90% or above (nearly complete death)) | L: common lambsquater, herbicidal effect (evaluation scale 0-5) (common lambsquater [20]): 0 (mortality of less than 5% (almost ineffective)); I: velvetleaf, herbicidal effect (evaluation scale 0-5) (velvetleaf [21]): 5 (mortality of 90% or above (nearly complete death)); M: posumbu knotweed, herbicidal effect (evaluation scale 0-5) (posumbu knotweed [22]): 5 (mortality of 90% or above (nearly complete death)); C: ducksalad, herbicidal effect (evaluation scale 0-5) (ducksalad [23]): 5 (mortality of 90% or above (nearly complete death)); A: barnyardgrass, herbicidal effect (evaluation scale 0-5) (barnyardgrass [24]): 5 (mortality of 90% or above (nearly complete death)); B: bulrush, herbicidal effect (evaluation scale 0-5) (bulrush [25]): 4 (mortality of at least 70% and less than 90%); a: transplanted rice, effect on crop (evaluation scale 0-5) (transplanted rice): 0 (mortality of less than 5% (almost ineffective)); C: ducksalad, herbicidal effect (evaluation scale 0-5) (ducksalad [26]): 5 (mortality of 90% or above (nearly complete death)); A: barnyardgrass, herbicidal effect (evaluation scale 0-5) (barnyardgrass [27]): 5 (mortality of 90% or above (nearly complete death)); B: bulrush, herbicidal effect (evaluation scale 0-5) (bulrush [28]): 5 (mortality of 90% or above (nearly complete death))
CC1(C(F)(F)F)CC(=O)N(Cc2ccccc2NS(=O)(=O)C(F)(F)F)CO1 (stereo not drawn) [II-46] | 0 (mortality of less than 5% (almost ineffective)) | 0 (mortality of less than 5% (almost ineffective)) | 4 (mortality of at least 70% and less than 90%) | 4 (mortality of at least 70% and less than 90%) | 3 (mortality of at least 40% and less than 70%) | 4 (mortality of at least 70% and less than 90%) | 4 (mortality of at least 70% and less than 90%) | 4 (mortality of at least 70% and less than 90%) | 2 (mortality of at least 20% and less than 40%) | 2 (mortality of at least 20% and less than 40%) | 1 (mortality of at least 5% and less than 20%) | 2 (mortality of at least 20% and less than 40%) | 0 (mortality of less than 5% (almost ineffective)) | 3 (mortality of at least 40% and less than 70%) | 5 (mortality of 90% or above (nearly complete death)) | 5 (mortality of 90% or above (nearly complete death)) | 4 (mortality of at least 70% and less than 90%) | 4 (mortality of at least 70% and less than 90%) | 5 (mortality of 90% or above (nearly complete death)) | 5 (mortality of 90% or above (nearly complete death)) | L: common lambsquater, herbicidal effect (evaluation scale 0-5) (common lambsquater [20]): 4 (mortality of at least 70% and less than 90%); I: velvetleaf, herbicidal effect (evaluation scale 0-5) (velvetleaf [21]): 3 (mortality of at least 40% and less than 70%); M: posumbu knotweed, herbicidal effect (evaluation scale 0-5) (posumbu knotweed [22]): 3 (mortality of at least 40% and less than 70%); C: ducksalad, herbicidal effect (evaluation scale 0-5) (ducksalad [23]): 5 (mortality of 90% or above (nearly complete death)); A: barnyardgrass, herbicidal effect (evaluation scale 0-5) (barnyardgrass [24]): 4 (mortality of at least 70% and less than 90%); B: bulrush, herbicidal effect (evaluation scale 0-5) (bulrush [25]): 5 (mortality of 90% or above (nearly complete death)); a: transplanted rice, effect on crop (evaluation scale 0-5) (transplanted rice): 0 (mortality of less than 5% (almost ineffective)); C: ducksalad, herbicidal effect (evaluation scale 0-5) (ducksalad [26]): 5 (mortality of 90% or above (nearly complete death)); A: barnyardgrass, herbicidal effect (evaluation scale 0-5) (barnyardgrass [27]): 4 (mortality of at least 70% and less than 90%); B: bulrush, herbicidal effect (evaluation scale 0-5) (bulrush [28]): 5 (mortality of 90% or above (nearly complete death))
